molecular target: T1, KCNT1 (KNa1.1, Slack) (Homo sapiens, UniProt Q5JUK3); assay: KCNT1 patch clamp assay (SyncroPatch 384PE automated patch clamp); assay type: cell-based; settings: tetracycline inducible cell line (HEK-TREX); perforated patch mode; step from -80 mV to 0 mV; room temperature; read-out: KCNT1-WT IC50
T1 construct: expressed in transfected cells; host or cells: HEK-TREX (tetracycline-inducible HEK cell line)
T1 sequence (Q5JUK3 1-1230): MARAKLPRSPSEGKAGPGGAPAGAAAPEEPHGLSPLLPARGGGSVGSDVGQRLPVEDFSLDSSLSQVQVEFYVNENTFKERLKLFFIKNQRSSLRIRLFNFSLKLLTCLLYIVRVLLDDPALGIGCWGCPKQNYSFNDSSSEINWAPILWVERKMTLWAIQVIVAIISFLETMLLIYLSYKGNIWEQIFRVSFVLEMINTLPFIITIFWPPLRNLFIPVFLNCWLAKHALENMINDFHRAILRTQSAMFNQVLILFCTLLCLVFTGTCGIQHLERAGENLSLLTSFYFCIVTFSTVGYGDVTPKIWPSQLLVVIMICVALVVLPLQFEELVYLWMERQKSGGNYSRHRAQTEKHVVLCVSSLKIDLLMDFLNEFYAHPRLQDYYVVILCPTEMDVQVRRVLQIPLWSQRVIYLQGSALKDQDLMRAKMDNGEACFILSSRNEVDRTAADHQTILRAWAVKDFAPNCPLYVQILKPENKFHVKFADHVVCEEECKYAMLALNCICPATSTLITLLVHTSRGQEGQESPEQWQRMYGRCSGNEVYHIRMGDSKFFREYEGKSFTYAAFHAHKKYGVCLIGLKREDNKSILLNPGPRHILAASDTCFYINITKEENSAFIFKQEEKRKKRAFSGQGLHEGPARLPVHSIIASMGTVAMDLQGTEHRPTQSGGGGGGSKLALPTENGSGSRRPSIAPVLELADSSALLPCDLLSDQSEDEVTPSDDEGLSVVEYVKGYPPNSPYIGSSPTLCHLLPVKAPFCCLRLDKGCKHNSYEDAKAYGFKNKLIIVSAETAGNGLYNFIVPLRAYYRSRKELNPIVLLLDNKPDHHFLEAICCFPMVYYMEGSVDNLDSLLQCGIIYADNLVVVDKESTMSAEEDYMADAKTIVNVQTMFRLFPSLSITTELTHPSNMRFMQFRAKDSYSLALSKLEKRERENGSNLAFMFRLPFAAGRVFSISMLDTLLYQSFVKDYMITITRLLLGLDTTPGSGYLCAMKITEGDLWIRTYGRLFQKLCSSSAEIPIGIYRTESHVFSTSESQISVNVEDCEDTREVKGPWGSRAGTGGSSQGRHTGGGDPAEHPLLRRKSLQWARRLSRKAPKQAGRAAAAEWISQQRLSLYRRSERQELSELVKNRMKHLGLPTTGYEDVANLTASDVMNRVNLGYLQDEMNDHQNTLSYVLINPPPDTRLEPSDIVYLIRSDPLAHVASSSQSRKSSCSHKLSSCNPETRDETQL
Procedure: Inhibition of KCNT1 (KNa1.1, Slack) was evaluated using a tetracycline inducible cell line (HEK-TREX). Currents were recorded using the SyncroPatch 384PE automated, patch clamp system. Pulse generation and data collection were performed with PatchController384 V1.3.0 and DataController384 V1.2.1 (Nanion Technologies). The access resistance and apparent membrane capacitance were estimated using built-in protocols. Current were recorded in perforated patch mode (10 μM escin) from a population of cells. The cells were lifted, triturated, and resuspended at 800,000 cells/ml. The cells were allowed to recover in the cell hotel prior to experimentation. Currents were recorded at room temperature. The external solution contained the following (in mM): NaCl 105, NMDG 40, KCl 4, MgCl2 1, CaCl2 5 and HEPES 10 (pH=7.4, Osmolarity ˜300 mOsm). The extracellular solution was used as the wash, reference and compound delivery solution. The internal solution contained the following (in mM): NaCl 70, KF 70, KCl 10, EGTA 5, HEPES 5 and Escin 0.01 (pH=7.2, Osmolarity ˜295 mOsm). Escin is made at a 5 mM stock in water, aliquoted, and stored at −20° C. The compound plate was created at 2× concentrated in the extracellular solution. The compound was diluted to 1:2 when added to the recording well. The amount of DMSO in the extracellular solution was held constant at the level used for the highest tested concentration. A holding potential of −80 mV with a 100 ms step to 0 mV was used. Mean current was measured during the step to 0 mV. […] The average mean current from 3 sweeps was calculated and the % inhibition of each compound was calculated. The % Inhibition as a function of the compound concentration was fit with a Hill equation to derive IC50, slope, min and max parameters. If KCNT1 inhibition was less than 50% at the highest tested concentration or if an IC50 could not be calculated, then a percent inhibition was reported in place of the IC50.
In this table, “A” indicates IC50 of less than or equal to 1 μM; “B” indicates inhibition of between 1 μM to 20 μM; and “C” indicates inhibition of greater than or equal to 20 μM.

Row | IC50 [nM] | SMILES
1 | ≤ 1000 | CNS(=O)(=O)c1ccc(C(=O)NCc2ccc(Cl)cc2OC)s1 [Compound 13, N-(4-chloro-2-methoxybenzyl)-5-(N-methylsulfamoyl)thiophene-2-carboxamide]
2 | ≤ 1000 | CNS(=O)(=O)c1ccc(C(=O)NCc2ccc(Cl)cc2C(F)(F)F)s1 [Compound 8, N-(4-chloro-2-(trifluoromethyl)benzyl)-5-(N-methylsulfamoyl)thiophene-2-carboxamide]
3 | ≤ 1000 | CS(=O)(=O)c1ccc(C(=O)NCc2ccc(C(F)(F)F)cc2)s1 [Compound 33, 5-(methylsulfonyl)-N-(4-(trifluoromethyl)benzyl)thiophene-2-carboxamide]

The next lines start with the compound.

Row | SMILES | IC50 [nM]
4 | CNS(=O)(=O)c1ccc(C(=O)NCc2ccc(C(C)(C)C#N)cc2)s1 [Compound 38, N-(4-(2-cyanopropan-2-yl)benzyl)-5-(N-methylsulfamoyl)thiophene-2-carboxamide] | 1000 to 20000
5 | CS(=O)(=O)c1ccc(C(=O)NCc2ccc(C(F)(F)F)nc2)s1 [Compound 46, 5-(methylsulfonyl)-N-((6-(trifluoromethyl)pyridin-3-yl)methyl)thiophene-2-carboxamide] | 1000 to 20000
6 | CNS(=O)(=O)c1ccc(C(=O)NCc2ccc(C(C)(C)C)cc2)s1 [Compound 28, N-(4-(tert-butyl)benzyl)-5-(N-methylsulfamoyl)thiophene-2-carboxamide] | ≤ 1000

— patent publication US20230219921A1, “KCNT1 INHIBITORS AND METHODS OF USE” (Praxis Precision Medicines, Inc., priority 2020, published 2023)
